# In patent US8288416B2, “Substituted piperidinophenyl oxazolidinones” (Wockhardt Ltd., priority 2006, dated 2012):
# Counter-ions that a name gives are not always drawn. Like-named read-outs stand apart in the source and are kept apart here.
# Key:
# [1] = Aqueous solubility; assay type: physicochemical; conditions: for solubility: aqueous
# [2] = pH 7, aqueous buffer, pH 7, read-out: Aqueous solubility at pH 7
smiles,measurement,setting,value
"COCC1(OP(=O)(O)O)CCN(c2c(F)cc(N3C[C@H](CNC(C)=O)OC3=O)cc2F)CC1 [Example 3, Phosphoric acid mono-(1-{4-[(S)-5-(acetylamino-methyl)-2-oxo-oxazolidin-3-yl]-2,6-difluorophenyl}-4-methoxymethyl-piperidin-4-yl)ester]",solubility,"[1]; pH not stated, read-out: Aqueous solubility",> 200 mg/mL
same,melting point,,> 140 °C
"COCC1(OP(=O)(O)O)CCN(c2c(F)cc(N3C[C@H](CNC(C)=O)OC3=O)cc2F)CC1 [Example 4, Phosphoric acid mono-(1-{4-[(S)-5-(acetylamino-methyl)-2-oxo-oxazolidin-3-yl]-2,6-difluoro-phenyl}-4-methoxymethyl-piperidin-4-yl)ester di sodium salt]",Aqueous solubility at pH 7,"[1]; pH 7, di sodium salt",> 200 mg/ml
"COCC1(OP(=O)(O)O)CCN(c2c(F)cc(N3C[C@H](CNC(C)=O)OC3=O)cc2F)CC1 [Example 5, Phosphoric acid mono-(1-{4-[(S)-5-(acetylamino-methyl)-2-oxo-oxazolidin-3-yl]-2,6-difluoro-phenyl}-4-methoxymethyl-piperidin-4-yl)ester di potassium salt]",Aqueous solubility at pH 7,"[1]; pH 7, di potassium salt",> 200 mg/ml
"COCC1(OP(=O)(O)O)CCN(c2c(F)cc(N3C[C@H](CNC(C)=O)OC3=O)cc2F)CC1 [Example 6, Phosphoric acid mono-(1-{4-[(S)-5-(acetylamino-methyl)-2-oxo-oxazolidin-3-yl]-2,6-difluoro-phenyl}-4-methoxymethyl-piperidin-4-yl)ester magnesium salt]",Aqueous solubility at pH 7,[1]; pH 7,~2 mg/ml
"COCC1(OP(=O)([O-])[O-])CCN(c2c(F)cc(N3C[C@H](CNC(C)=O)OC3=O)cc2F)CC1.[Ca+2] [Example 7, Phosphoric acid mono-(1-{4-[(S)-5-(acetylamino-methyl)-2-oxo-oxazolidin-3-yl]-2,6-difluoro-phenyl}-4-methoxymethyl-piperidin-4-yl)ester calcium salt]",solubility,[1]; [2],~0.5 mg/mL
"COCC1(OC(=O)CN)CCN(c2c(F)cc(N3C[C@H](CNC(C)=O)OC3=O)cc2F)CC1.Cl [Example 11, 2-Amino-acetic acid 1-{4-[(S)-5-(acetylamino-methyl)-2-oxo-oxazolidin-3-yl]-2,6-difluorophenyl}-4-methoxymethyl-piperidin-4-yl ester hydrochloride salt]",solubility,[1]; [2],> 100 mg/mL
"COCC1(OC(=O)CN)CCN(c2c(F)cc(N3C[C@H](CNC(C)=O)OC3=O)cc2F)CC1.O=C(O)C(F)(F)F [Example 12, 2-Amino-acetic acid 1-{4-[(S)-5-(acetylamino-methyl)-2-oxo-oxazolidin-3-yl]-2,6-difluorophenyl}-4-methoxymethyl-piperidin-4-yl ester triflouroacetic acid salt]",Aqueous solubility at pH 7,[1]; pH 7,> 100 mg/ml
"COCC1(C(=O)[C@H](C)NC(=O)OC(C)(C)C)CCN(c2c(F)cc(N3C[C@H](CNC(C)=O)OC3=O)cc2F)CC1 [Example 13, (S)—N-{3-[3,5-difluoro-4-(4-(S)-2-tert-butoxycarbonylamino-propionyl-4-methoxymethyl-piperidine-1-yl)phenyl]-2-oxo-oxazolidin-5-ylmethyl}-acetamide]",Aqueous solubility at pH 7,[1]; pH 7,> 100 mg/ml
"COCC1(OC(=O)C(C)N)CCN(c2c(F)cc(N3C[C@H](CNC(C)=O)OC3=O)cc2F)CC1.Cl (stereo partly drawn) [Example 14, 2-Amino-propionic acid 1-{4-[(S)-5-(acetylamino-methyl)-2-oxo-oxazolidin-3-yl]-2,6-difluorophenyl}-4-methoxymethyl-piperidin-4-yl ester hydrochloride salt]",solubility,[1]; [2],> 100 mg/mL
"COCC1(OC(=O)C(C)N)CCN(c2c(F)cc(N3C[C@H](CNC(C)=O)OC3=O)cc2F)CC1.O=C(O)C(F)(F)F (stereo partly drawn) [Example 15, 2-Amino-propionic acid 1-{4-[(S)-5-(acetylamino-methyl)-2-oxo-oxazolidin-3-yl]-2,6-difluorophenyl}-4-methoxymethyl-piperidin-4-yl ester triflouroacetic acid salt]",Aqueous solubility at pH 7,[1]; pH 7,> 100 mg/ml
"COCC1(C(=O)[C@@H](NC(=O)OCc2ccccc2)C(C)C)CCN(c2c(F)cc(N3C[C@H](CNC(C)=O)OC3=O)cc2F)CC1 [Example 16, (S)—N-{3-[3,5-Difluoro-4-(4-(S)-2-carbobenzyloxyamino-3,3-dimethylpropionyl-4-methoxymethyl-piperidine-1-yl)phenyl]-2-oxo-oxazolidin-5-ylmethyl}-acetamide]",Aqueous solubility at pH 7,[1]; pH 7,> 100 mg/ml
"COCC1(OC(=O)C(N)C(C)C)CCN(c2c(F)cc(N3C[C@H](CNC(C)=O)OC3=O)cc2F)CC1.CS(=O)(=O)O (stereo partly drawn) [Example 17, 2-Amino-3,3-dimethylpropionic acid 1-{4-[(S)-5-(acetylamino-methyl)-2-oxo-oxazolidin-3-yl]-2,6-difluorophenyl}-4-methoxymethyl-piperidin-4-yl ester methane sulfonic acid salt]",solubility,"[1]; pH 7, aqueous buffer, read-out: Aqueous solubility at pH 7",> 100 mg/mL
